Measured values from US11278492B2 (priority 2018, dated 2022).

Legend:
[1] = Phase 1 clinical trial, plasma olanzapine pharmacokinetics; details: human, in vivo
Procedure: Randomization for Periods 1 and 2 was performed for each subject on Day 1.
In Period 1, subjects were assigned to 1 of 3 cohorts (n=12 per cohort). […] Dose administration occurred at Visit 2 on Day 1 (relative to each cohort). Each cohort was scheduled to allow time for Period 2 safety assessments to occur prior to dose escalation in the next cohort period 2 dosing. Subjects remained confined to the study site for 72 hours after dosing. Subjects returned to the study site on Days 5 and 6 (Visits 3 and 4) for follow-up assessments.
In Period 2, subjects returned to the study site after a washout period of at least 14 days. Subjects from each Period 1 cohort received a single dose of INP105 (5, 10 or 15 mg) or placebo in a 9:3 ratio, as outlined in Table 11. Dose administration occurred on Day 15. (Dosing was permitted to occur later than the calendar Day 15 as required for scheduling (up to 2 days) but not before Day 15.) Ascending-dose levels of INP105 (5, 10 or 15 mg) were administered to ascending cohort numbers as follows:
The following pharmacokinetic parameters were determined: Cmax, Tmax, Tlast, AUClast, and t1/2 where possible.

[2] = test system: rat; test: 14-day sub-chronic toxicity in rat with nasal olanzapine delivery; assay type: in vivo; details: nasal delivery (data not shown)
[3] = oral olanzapine tablets or disintegrating tablets, previously reported; cited from earlier work

SMILES: Cc1cc2c(s1)Nc1ccccc1N=C2N1CCN(C)CC1 [olanzapine]
- Tmax ([1]; im, 5 mg): 19.8 to 21.6 min
- Tmax ([1]; inhaled or intranasal): 9.6 to 10.2 min
- Cmax ([1]; inhaled or intranasal, 15 mg): ≥ 30 ng/mL
- Tmax ([1]; po, 10 mg): 120 min
- macroscopic or microscopic findings [2]: No macroscopic or microscopic findings
- time to peak plasma concentration (Tmax) [3]: 300 to 480 min
